Data reported in ChEMBL document CHEMBL1147279, “6-Desmethoxyhormothamnione, a new cytotoxic styrylchromone from the marine cryptophyte Chrysophaeum taylori” (1989).
Values after ≈ are worked out from the molar mass of the structure shown. Active and inactive are the calls of the source. The calls are words filed in the database; no cut-off is given here.

How the values were obtained:
Bacillus subtilis = experiment: Antimicrobial activity against Bacillus subtilis at 100 ug by paper disk assay; assay type: functional, organism-based
Staphylococcus aureus = experiment: Antimicrobial activity against Staphylococcus aureus at 100 ug by paper disk assay; assay type: functional, organism-based
Escherichia coli = experiment: Antimicrobial activity against Escherichia coli at 100 ug by paper disk assay; assay type: functional, organism-based
Pseudomonas aeruginosa = experiment: Antimicrobial activity against Pseudomonas aeruginosa at 100 ug by paper disk assay; assay type: functional, organism-based
Candida albicans = experiment: Antimicrobial activity against Candida albicans at 100 ug by paper disk assay; assay type: functional, organism-based
[1] = Cytotoxicity against human 9KB cells; assay type: functional; conditions: read-out: LD50 (the source's name)

Which Activity (Bacillus subtilis) does the source give for `COc1cc(O)c2c(=O)c(C)c(/C=C/c3cc(O)cc(O)c3)oc2c1OC` here?
Its Activity is “inactive”.

What about the Activity (Staphylococcus aureus) of the same compound?
Its Activity is “inactive”.

And the Activity (Escherichia coli)?
Its Activity is “inactive”.

What about the Activity (Pseudomonas aeruginosa) of the same compound?
Its Activity is “inactive”.

And the Activity (Candida albicans)?
The Activity was “inactive”.

And the CC50 [1]?
The CC50 was 1 µg/mL (≈ 2.7 µM).
